Peptide text beside a SMILES is read from it.

By melting point is commonly meant the temperature, or range, at which the solid turns liquid.

The molecule `NC(=NO)c1c(Cl)cccc1Cl` yielded a melting point of 163 to 166 °C.
The value for `Oc1c(Br)cc(Br)c(Br)c1Br` was 114 °C; that for `CCP(CC)CC` was -88 °C.
The result for `Fc1cc(F)c(F)c(F)c1` reads -48 °C; that for `CCOC(=O)CN(CCCN(CC(=O)OCC)S(=O)(=O)c1ccc(C)cc1)S(=O)(=O)c1ccc(C)cc1`, 130 °C.
The result for `Nc1ccc(Br)nc1` reads 77 °C; that for `CC(C)c1cc(C(C)C)c(S(=O)(=O)N=[N+]=[N-])c(C(C)C)c1`, 42 °C; that for `CCOc1cc(C(=S)N2CCCCC2)ccc1OCc1ccccc1`, 72 °C.
Consider `Cc1ccc(C)c2c1-c1nc3ccccc3nc1-2`, for which the melting point was 195 °C.
The value for `OCCc1c(Cl)cccc1Cl` was 59 to 65 °C; that for `COc1ccc([N+](=O)[O-])c(SC(C)C(=O)O)n1` (centres undefined) was 196 to 199 °C; that for `CCC(C)CC(=O)O` (racemic) was -41 °C.
For `N#Cc1ccccc1C#N`, the melting point came out at 140 °C.
The result for `Cc1ccc(F)cc1C#N` reads 43 to 45 °C; that for `CC(=O)OC1CC2(C)C(CC(O)C3C4(C)CCC(O)C(C)C4CCC32C)C1=C(CCC=C(C)C)C(=O)O` (centres undefined), 192 °C; that for `CN1CCN(c2ccccc2C=O)CC1`, 44 to 48 °C.
With `Cc1ccccc1NN=C1C(=O)NC(=S)NC1=O`, the melting point stood at 242 °C.
The value for `Cc1cc(O)cc2c1C(=O)CC(C)(C)O2` was 189 to 191 °C; that for `O=C(C(Cl)(Cl)Cl)C(Cl)(Cl)Cl` was -2 °C.
The result for `NS(=O)(=O)c1cc2c(s1)SCCC2=O` reads 222 °C; that for `CC(C)(c1cc(Br)c(OCCO)c(Br)c1)c1cc(Br)c(OCCO)c(Br)c1`, 108 to 114 °C.
The result for `CC(=O)OC(/C=C/c1ccccc1)=NNC(N)=O` reads 174 °C; that for `O=C1NC(=S)NC(=O)C1=NNc1ccc(C(=O)O)cc1`, 340 °C.
The molecule `O=C(c1ccccc1)c1cccc(C(=O)c2ccccc2)c1` came in with a melting point of 98.5 °C.
The result for `O=Cc1cc(I)cc(I)c1O` reads 108 °C.
The result for `CCc1cccc2ccccc12` reads -13.9 °C.
The result for `CC(C)OC(=O)C1(S(=O)(=O)c2ccc([N+](=O)[O-])cc2)CC1` reads 123 °C; that for `COC(=O)C1C(=O)C(C(=O)OC)C2c3ccccc3C1C(C(=O)OC)C(O)C2C(=O)OC` (centres undefined), 92.2 °C.
Consider `CC(C)(C)OC(=O)N1CCN(c2ccc(I)cn2)CC1`, for which the melting point was 102 to 105 °C.
The value for `Clc1nccc2occc12` was 41 to 42 °C; that for `O=C(NCCO[N+](=O)[O-])c1cccnc1` was 92.5 °C; that for `CCCCO[Si](OCCCC)(OCCCC)OCCCC` was -80 °C.
The value for `CCCCc1ccc(C(=O)O)cc1` was 106 °C.
The result for `CCCCOC(=O)C1=C(C)NC(C)=C(C(=O)OCCCC)C1c1ccco1` reads 87 °C.
Molecule `O=C(Cl)c1cccc2c1OCCCO2` gave a melting point of 36 to 38 °C.
The value for `NC(=O)CCSCCC(N)=O` was 183 to 186 °C.
The value for `O=C=Nc1ccccc1[N+](=O)[O-]` was 41 °C; that for `Cc1ccc(C(c2ccc(C(c3ccc(C)o3)c3ccc(C)o3)cc2)c2ccc(C)o2)o1` was 156 °C; that for `c1ccc(CON=C(c2cc3ccccc3o2)c2cc3ccccc3o2)cc1` was 127 to 128 °C.
The result for `CC(C)OC(=O)Cc1csc(-c2ccc(Cl)cc2)n1` reads 82 to 84 °C.
`Cc1ccc(S(=O)(=O)NCCNS(=O)(=O)c2ccc(C)cc2)cc1`: the melting point turned out to be 160 °C.
The value for `c1n[nH]c2c1CSC2` was 132 to 133 °C.
The value for `O=C1CCCc2c1c1c3c(ccc4c3c2CCC4)CCC1` was 146 to 149 °C.
The result for `O=[N+]([O-])c1ccc(C=NO)o1` reads 163 °C; that for `O=C1CNC(=O)CN1`, 300 °C.
In turn, `Cc1cc(C(F)(F)F)n2nc(N)c(/N=N/c3cc(Cl)ccc3Cl)c2n1` had a melting point of 215 °C.
The result for `O=C(N[C@H](Cc1cccc(Br)c1)C(=O)O)OCC1c2ccccc2-c2ccccc21` reads 146 °C.
`O=C(CNc1ccc(NCC(=O)c2ccccc2)cc1)c1ccccc1`: the melting point was determined as 151 °C.
Molecule `O=C(O)CCC(=O)c1ccc2c(c1)OCCO2` came in with a melting point of 138 to 140 °C.
`Cc1cc(CCN2CCN(c3cccc(Cl)c3)CC2)n[nH]1` displayed a melting point of 106 °C.
In turn, `c1cc2c3c(c4ccc5ccccc5c4cc3c1)CC2` showed a melting point of 174 °C.
The value for `O=C(CO)[C@@H](O[C@H]1O[C@H](CO)[C@@H](O)[C@H](O)[C@H]1O)[C@H](O)[C@H](O)CO` was 168 °C.
`Fc1cccc(C(F)(F)F)c1CBr` had a melting point of 44 °C.
The value for `BrCc1ccc(-n2cccc2)cc1` was 86 to 91 °C; that for `Cc1cc(C#N)ccc1Br` was 53 °C; that for `C1=COCCC1` was -70 °C.
The value for `Clc1ccccc1C=C1c2ccccc2-c2ccccc21` was 69.5 °C; that for `CSc1nc(N)c(C(=O)c2ccccc2)s1` was 126 to 127 °C; that for `CCCCNc1cc(=O)oc2ccccc12` was 118 °C.
The result for `CCc1cccc(N)c1` reads -8 °C.
Molecule `CCNc1cc2oc(=O)cc(C)c2cc1C` yielded a melting point of 168 to 170 °C.
The value for `O=C(Nc1cccc(N=[N+]([O-])c2cccc(NC(=O)c3ccccc3)c2)c1)c1ccccc1` was 247 °C.
The value for `NS(=O)(=O)c1cccc(Cl)c1Cl` was 220 °C.
The result for `O=C(O)c1cccc2c1OCC2` reads 170 to 171 °C; that for `Cc1[nH]c(=O)n(C(C)(C)C)c(=O)c1Cl`, 176 °C.
`NCC(=O)N[C@@H](CCC(=O)O)C(=O)O` (H-Gly-Glu-OH) yielded a melting point of 155 to 158 °C.
The result for `OCC(CO)(CCl)CCl` reads 83 °C.
In the case of `Oc1c(Cl)cc(Cl)cc1Br`, the melting point is 68 °C.
The result for `CCCCCCCCCCCCCCCBr` reads 19 °C; that for `NC(CC(=O)O)c1ccc(Cl)cc1` (centres undefined), 243 to 245 °C.
The result for `COC(=O)C1(C(=O)OC)Cc2c(C)cccc2C(=O)O1` reads 100 °C; that for `CC(Oc1ccc(Oc2cnc3cc(Cl)ccc3n2)cc1)C(=O)OCC1CCCO1` (centres undefined), 64 °C; that for `O=C(Cl)C=Cc1ccccc1`, 36 °C.
`O=C1C=CC=C2CC1=CC=CC2=O` returned a melting point of 147 °C.
The value for `COc1c(Cl)cc([N+](=O)[O-])cc1Cl` was 97 to 100 °C.
`ONc1ccccc1` yielded a melting point of 83.5 °C.
The result for `Cc1cc(I)cnc1Br` reads 45 °C; that for `CC1CCC(C)(C(=O)CCOC(=S)Nc2ccccc2)C1(C)C` (centres undefined), 154 °C; that for `Cc1ccc(N=Nc2ccc(C)cc2)cc1`, 140 °C.
The value for `O=Cc1ccc(N2CCCCC2)nc1` was 43 °C; that for `Nc1nc(O)cc(O)n1` was 300 °C.
`Cc1ccc(S(=O)(=O)OCc2c(F)c(F)c(F)c(F)c2F)cc1` registered a melting point of 78 °C.
The result for `CCN(CC)C(=O)C(Cl)(Cl)Cl` reads 27 °C.
The value for `NC(=S)NNC(N)=S` was 200 to 203 °C.
The value for `C=C(O[Si](C)(C)C)c1c(C)c(C)c(C)c(C)c1C` was 41 °C; that for `Cc1cc(O)c(C(c2ccc([N+](=O)[O-])cc2)c2c(O)cc(C)oc2=O)c(=O)o1` was 238 to 240 °C.
On to `CC(=O)Oc1cc(OC(C)=O)cc(C(C)=O)c1`, for which the melting point lay within 91 to 95 °C.
The value for `Nc1nnc(C(F)(F)F)s1` was 224 °C; that for `CCCCC(=O)c1ccc(O)cc1` was 62 to 65 °C.
The result for `Nc1ncc(S(=O)(=O)c2ccc([N+](=O)[O-])cc2)s1` reads 222 to 226 °C; that for `O=C1CC(=P(c2ccccc2)(c2ccccc2)c2ccccc2)C(=O)O1`, 167 °C; that for `NC(=S)Nc1cccc([N+](=O)[O-])c1`, 189 to 190 °C.
The result for `CC(=O)OC(OC(C)=O)c1ccc2c(c1)C(=O)c1c(Cl)c(Cl)c(Cl)c(Cl)c1C2=O` reads 172 °C; that for `CC=Cc1cc(OC)c(OC)cc1OC`, 62.5 °C.
Molecule `C[C@@]1(CO)N[C@H](C(=O)O)CC2c3ccccc3NC21` (some centres undefined) showed a melting point of 258 to 262 °C.
The value for `O=C(OCCOC(=O)C(Cl)(Cl)Cl)C(Cl)(Cl)Cl` was 40 °C.
In turn, `COc1ccc(OCC(=O)O)cc1` showed a melting point of 112 to 114 °C.
The value for `O=C(O)COC(=O)c1cc(Oc2ccc(C(F)F)cc2Cl)ccc1[N+](=O)[O-]` was 65 °C.
The value for `O=C(Nc1ccc(Cl)cc1)c1cc(Cl)cc(Cl)c1O` was 142 °C; that for `CCOC(C)(C)C` was -94 °C; that for `CC(=O)N(c1ccc(C)cc1)c1nc(CCl)cs1` was 124 to 125 °C.
The result for `C=CC12CN(C)C3C4COC(CC41)C1(C(=O)Nc4ccccc41)C32` (centres undefined) reads 178 °C; that for `C1COC1`, -97 °C; that for `O=[N+]([O-])c1ccc(-c2nnc3n2CN(c2ccccc2[N+](=O)[O-])CS3)cc1`, 183 to 185 °C.
For the molecule `Nc1ccccc1Cl`, the melting point is -3 °C.
The value for `COC(=O)c1sc(C(F)(F)F)c(-c2ccccc2)c1S(=O)(=O)Cl` was 74 to 75 °C; that for `Cc1ccc(O)c(CO)n1` was 157 to 159 °C.
The result for `CCCCCCCCN(C)C` reads -57 °C; that for `O=C1c2ccccc2CC2CCc3ccccc3N12` (centres undefined), 130 °C.

For the origin of these results see a melting point compilation (Tetko et al.).
